Reference: PubChem BioAssay AID248 (DTP/NCI, 2004)
“And” between values parts separate entries of the source, which are not always exact repeats. Equal values may be shown once. Toxic doses and inconclusive results are not listed. No stated cut-off is given here; in the data, active means T/C of 150% or more; inactive means T/C below 125%.

Tested on: L1210 leukemia ip in BDF1 mice, survival T/C
Test: NCI In Vivo Anticancer Drug Screen. Data for tumor model L1210 Leukemia (intraperitoneal) in B6D2F1 (BDF1) mice
Conditions: endpoint: mean survival time, higher = longer survival
Summary of the method: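 Tumor cells were implanted, animals were treated, and survival was followed. The result divides the treated measurement by the vehicle-control measurement.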

[1] = dose: 100.0 mg/kg/injection, schedule: Q04DX003 (ip), vehicle: carboxymethylcellulose (CMC)
[2] = dose: 200.0 mg/kg/injection, schedule: Q04DX003 (ip), vehicle: carboxymethylcellulose (CMC)
[3] = dose: 100.0 mg/kg/injection, schedule: Q01DX009 (ip), vehicle: Klucel (hydroxypropylcellulose) (HPC)
[4] = dose: 200.0 mg/kg/injection, schedule: Q01DX009 (ip), vehicle: Klucel (hydroxypropylcellulose) (HPC)
[5] = dose: 400.0 mg/kg/injection, schedule: Q01DX009 (ip), vehicle: Klucel (hydroxypropylcellulose) (HPC)
[6] = dose: 50.0 mg/kg/injection, schedule: Q01DX001 (ip), vehicle: carboxymethylcellulose (CMC)
[7] = dose: 100.0 mg/kg/injection, schedule: Q01DX001 (ip), vehicle: carboxymethylcellulose (CMC)
[8] = dose: 100.0 mg/kg/injection, schedule: Q04DX003 (ip), vehicle: saline
[9] = dose: 200.0 mg/kg/injection, schedule: Q01DX001 (ip), vehicle: carboxymethylcellulose (CMC)
[10] = dose: 200.0 mg/kg/injection, schedule: Q04DX003 (ip), vehicle: saline
[11] = dose: 400.0 mg/kg/injection, schedule: Q01DX001 (ip), vehicle: carboxymethylcellulose (CMC)
[12] = dose: 400.0 mg/kg/injection, schedule: Q04DX003 (ip), vehicle: saline
[13] = dose: 100.0 mg/kg/injection, schedule: Q04DX003 (ip), vehicle: saline with Tween-80
[14] = dose: 200.0 mg/kg/injection, schedule: Q04DX003 (ip), vehicle: saline with Tween-80
[15] = dose: 100.0 mg/kg/injection, schedule: Q04DX003 (ip), vehicle: Klucel (hydroxypropylcellulose) (HPC)
[16] = dose: 200.0 mg/kg/injection, schedule: Q04DX003 (ip), vehicle: Klucel (hydroxypropylcellulose) (HPC)
[17] = dose: 400.0 mg/kg/injection, schedule: Q04DX003 (ip), vehicle: Klucel (hydroxypropylcellulose) (HPC)
[18] = dose: 100.0 mg/kg/injection, schedule: Q01DX001 (ip), vehicle: saline
[19] = dose: 200.0 mg/kg/injection, schedule: Q01DX001 (ip), vehicle: saline
[20] = dose: 400.0 mg/kg/injection, schedule: Q01DX001 (ip), vehicle: saline

Measured: T/C

COC1(c2ccccc2)C(c2ccccc2)=CC(c2ccccc2)=[N+]1[O-] (centres undefined)
inactive: dose: 75.0 mg/kg/injection, schedule: Q04DX003 (ip), vehicle: saline 92 % of control | dose: 150.0 mg/kg/injection, schedule: Q04DX003 (ip), vehicle: saline 89 % of control | dose: 300.0 mg/kg/injection, schedule: Q04DX003 (ip), vehicle: saline 91 % of control

CN(C)C(=O)NCc1cccs1
inactive: [1] 97 % of control | [2] 93 % of control | dose: 400.0 mg/kg/injection, schedule: Q04DX003 (ip), vehicle: carboxymethylcellulose (CMC) 104 % of control

O=P(O)(c1ccccc1)c1ccccc1
inactive: dose: 100.0 mg/kg/injection, schedule: Q04DX002 (ip), vehicle: Klucel (hydroxypropylcellulose) (HPC) 102 % of control and 86 % of control | dose: 200.0 mg/kg/injection, schedule: Q04DX002 (ip), vehicle: Klucel (hydroxypropylcellulose) (HPC) 93 % of control and 89 % of control | dose: 400.0 mg/kg/injection, schedule: Q04DX002 (ip), vehicle: Klucel (hydroxypropylcellulose) (HPC) 96 % of control

CN(C)c1ccc(/C=C2\N=C(c3ccc([N+](=O)[O-])cc3)OC2=O)cc1
inactive: [3] 96 % of control | [4] 101 % of control | [5] 93 % of control

CCOC(=O)/C=C/C(=O)O
inactive: [6] 111 % of control | dose: 75.0 mg/kg/injection, schedule: Q01DX001 (ip), vehicle: carboxymethylcellulose (CMC) 86 % of control | [7] 105 % of control | [8] 95 % of control and 109 % of control | [9] 114 % of control | [10] 103 % of control and 109 % of control | [11] 101 % of control | [12] 95 % of control and 97 % of control

Nc1cc(=O)n(Cc2ccccc2)c(=O)n1Cc1ccccc1
inactive: [6] 104 % of control | [7] 101 % of control | [9] 111 % of control | [11] 98 % of control

C=C(Cl)CSCCS
inactive: [13] 95 % of control | [14] 106 % of control

CCOC(=O)NC(=S)Nc1ncn[nH]1
inactive: [8] 96 % of control | [10] 97 % of control | [12] 103 % of control

CCOc1ccc(NC(=O)C=O)cc1
inactive: [3] 92 % of control | [15] 94 % of control | [4] 103 % of control | [16] 94 % of control | [5] 105 % of control | [17] 97 % of control

CCN(Cc1ccccc1)C(=O)Nc1ccc(OC)cc1
inactive: [3] 103 % of control | [4] 97 % of control | [5] 106 % of control

OC12CCCC3CCCC(CCC1)C32 (centres undefined)
inactive: dose: 100.0 mg/kg/injection, schedule: Q01DX009 (ip), vehicle: saline sonified 108 % of control | [15] 106 % of control | dose: 200.0 mg/kg/injection, schedule: Q01DX009 (ip), vehicle: saline sonified 111 % of control | [16] 96 % of control | dose: 400.0 mg/kg/injection, schedule: Q01DX009 (ip), vehicle: saline sonified 92 % of control | [17] 104 % of control

NCc1ccc[n+]([O-])c1
inactive: dose: 12.5 mg/kg/injection, schedule: Q04DX002 (ip), vehicle: saline with Tween-80 97 % of control | dose: 25.0 mg/kg/injection, schedule: Q04DX002 (ip), vehicle: saline with Tween-80 105 % of control | dose: 50.0 mg/kg/injection, schedule: Q04DX002 (ip), vehicle: saline with Tween-80 102 % of control and 118 % of control | dose: 200.0 mg/kg/injection, schedule: Q04DX002 (ip), vehicle: saline with Tween-80 89 % of control

O=[N+]([O-])c1ccc(/C=C/C=C\c2ccc(S(=O)(=O)F)cc2Cl)cc1
inactive: [15] 96 % of control | [16] 92 % of control | [17] 96 % of control

O=[N+]([O-])c1cc(Cl)ccc1S(=O)(=O)F
inactive: [1] 103 % of control | [2] 94 % of control

CC(=O)Oc1ccc(OC(C)=O)c2c1C1C=CC2C1
inactive: [18] 103 % of control | [19] 103 % of control | [20] 101 % of control

Cc1cc(CC(=O)c2ccccc2)[nH]c(=O)c1
inactive: [18] 103 % of control | [19] 101 % of control | [20] 101 % of control

CC(C)(C)C(=O)CC(O)(C(F)(F)Cl)C(F)(F)Cl
inactive: [13] 107 % of control | [14] 91 % of control

CC1(C)CN=C(c2cccc([N+](=O)[O-])c2)O1
inactive: [3] 98 % of control | [4] 105 % of control | [5] 100 % of control

O=C(CC(O)(C(F)(F)F)C(F)(F)F)c1ccc(F)cc1
inactive: [13] 94 % of control | [14] 92 % of control | dose: 400.0 mg/kg/injection, schedule: Q04DX003 (ip), vehicle: saline with Tween-80 103 % of control

Nc1nc(N)c(N=Cc2ccc(N(CCCl)CCCl)cc2)c(N)n1
inactive: dose: 50.0 mg/kg/injection, schedule: Q01DX001 (ip), vehicle: saline 100 % of control | [7] 103 % of control | [19] 103 % of control | [11] 100 % of control

O=C(O)c1cccc2c1C(Br)C(Br)c1ccccc1-2 (centres undefined)
inactive: [8] 94 % of control | [10] 94 % of control | [12] 92 % of control
